According to US20230138177A1 (priority 2020, published 2023):

Legend:
[1] = biological target: T1, DYRK1B (Homo sapiens, UniProt Q9Y463, P333A); assay type: cell-based
T1 construct: expressed in transfected cells; host or cells: glioma cells (U87)

[2] = biological target: T2, DYRK1B (Homo sapiens, UniProt Q9Y463); assay type: cell-based; design: expressed in transfected cells; host or cells: glioma cells (U87)
[3] = biological target: T2, DYRK1B; assay type: biochemical; design: expressed in transfected cells; host or cells: HEK293T or U87 cells; immunoprecipitate used in vitro; details: FLAG-DYRK1B from cells treated with harmine 10 μM or CX-4945 1 μM for 8 hours
[4] = test system: VCB-CUL2 complex; assay type: binding
[5] = test system: DYRK1A; assay type: cell-based, human
[6] = test system: GSK3β; assay type: biochemical, human
Sequence of GSK3β (P49841 whole entry): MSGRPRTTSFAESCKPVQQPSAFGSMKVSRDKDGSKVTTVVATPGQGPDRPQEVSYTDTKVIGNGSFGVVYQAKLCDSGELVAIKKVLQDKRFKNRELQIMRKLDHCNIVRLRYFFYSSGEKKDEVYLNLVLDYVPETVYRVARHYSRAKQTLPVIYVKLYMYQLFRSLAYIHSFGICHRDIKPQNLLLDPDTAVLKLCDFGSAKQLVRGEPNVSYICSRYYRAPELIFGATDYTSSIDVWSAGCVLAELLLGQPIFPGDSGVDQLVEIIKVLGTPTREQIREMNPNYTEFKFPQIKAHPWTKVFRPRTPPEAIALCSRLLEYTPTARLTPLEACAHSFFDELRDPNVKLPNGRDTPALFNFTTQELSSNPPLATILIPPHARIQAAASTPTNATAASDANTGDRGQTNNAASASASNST

[7] = test system: DYRK4
[8] = test system: DYRK1B; assay type: cell-based, human
[9] = test system: HIF2α; assay type: cell-based, human
[10] = test system: GSK3β; assay type: cell-based, human

T2 sequence (Q9Y463 whole entry): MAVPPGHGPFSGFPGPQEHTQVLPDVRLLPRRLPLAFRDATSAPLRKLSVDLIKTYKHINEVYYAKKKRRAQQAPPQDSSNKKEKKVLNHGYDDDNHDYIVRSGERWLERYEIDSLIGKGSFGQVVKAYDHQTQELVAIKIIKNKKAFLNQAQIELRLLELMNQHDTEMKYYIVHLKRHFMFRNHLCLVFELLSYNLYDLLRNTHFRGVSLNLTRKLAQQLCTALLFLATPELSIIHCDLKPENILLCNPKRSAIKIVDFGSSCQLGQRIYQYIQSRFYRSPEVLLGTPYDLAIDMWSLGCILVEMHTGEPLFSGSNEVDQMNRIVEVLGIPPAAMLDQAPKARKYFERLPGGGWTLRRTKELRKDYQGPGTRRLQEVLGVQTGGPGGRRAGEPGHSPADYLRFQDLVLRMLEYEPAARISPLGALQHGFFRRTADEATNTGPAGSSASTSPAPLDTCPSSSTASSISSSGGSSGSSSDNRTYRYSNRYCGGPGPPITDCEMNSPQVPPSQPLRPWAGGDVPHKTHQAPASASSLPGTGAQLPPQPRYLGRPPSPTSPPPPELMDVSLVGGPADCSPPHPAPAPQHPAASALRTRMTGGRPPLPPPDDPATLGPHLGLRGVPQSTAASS
T1 sequence (Q9Y463 whole entry P333A): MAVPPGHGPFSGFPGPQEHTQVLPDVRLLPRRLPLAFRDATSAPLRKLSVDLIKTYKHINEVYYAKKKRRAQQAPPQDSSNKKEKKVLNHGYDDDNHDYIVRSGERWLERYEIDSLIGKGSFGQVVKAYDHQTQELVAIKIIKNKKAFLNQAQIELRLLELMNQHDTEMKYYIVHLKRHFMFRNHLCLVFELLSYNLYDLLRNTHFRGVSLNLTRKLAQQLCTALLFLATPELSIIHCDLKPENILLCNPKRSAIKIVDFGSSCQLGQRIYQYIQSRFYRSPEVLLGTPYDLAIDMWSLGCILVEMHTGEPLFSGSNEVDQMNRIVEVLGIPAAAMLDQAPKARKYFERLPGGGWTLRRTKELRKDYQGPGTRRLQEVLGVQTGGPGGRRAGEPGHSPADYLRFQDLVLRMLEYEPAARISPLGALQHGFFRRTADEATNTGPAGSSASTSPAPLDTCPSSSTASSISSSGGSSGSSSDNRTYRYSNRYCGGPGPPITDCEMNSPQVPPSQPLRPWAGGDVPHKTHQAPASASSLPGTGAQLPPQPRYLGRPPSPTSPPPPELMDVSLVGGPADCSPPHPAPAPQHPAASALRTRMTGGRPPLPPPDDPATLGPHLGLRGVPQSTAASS

Compound | prolyl hydroxylation of DYRK1B-P333A [1] | tyrosine auto-phosphorylation of DYRK1B-P333A [1] | prolyl hydroxylation of DYRK1B [2] | tyrosine autophosphorylation of DYRK1B [2] | phosphorylation of the ID2-T27 substrate [3] | ID2-mediated dissociation of CUL2 from VCB [4] | VHL-HIF2α interaction [4] | prolyl hydroxylation of DYRK1A [5] | tyrosine autophosphorylation of DYRK1A [5] | GSK3β-mediated phosphorylation of GST-c-MYC [6] | prolyl hydroxylation of DYRK4 [7] | tyrosine autophosphorylation of DYRK4 [7] | prolyl hydroxylation of DYRK1B [8] | tyrosine autophosphorylation of DYRK1B [8] | proline hydroxylation on HIF2-α [9] | prolyl-hydroxylation of HIF2α [9] | proline hydroxylation on DYRK1 kinase [2] | prolyl hydroxylation of GSK3β [10] | tyrosine autophosphorylation of GSK3β [10]
COC(=O)CNC(=O)C(=O)OC [DMOG, dimethyloxalylglycine] | caused loss | caused loss | caused loss | caused loss |  |  |  |  |  |  |  |  |  |  |  |  |  |  | 
COc1ccc2c(c1)[nH]c1c(C)nccc12 [harmine] |  |  | failed to perturb | severely impairing | severely impairing |  |  |  |  |  |  |  |  |  |  |  |  |  | 
CoCl2 |  |  | caused loss | caused loss |  | elicited | disrupted | abolished | abolished | abolished | caused loss | caused loss | abolished | abolished | complete elimination | prevented | complete elimination | caused loss | caused loss
